Laboratory results from ChEMBL document CHEMBL5543095 (Eur J Med Chem, 2024).
pIC50: −log10 of the molar value. Active and inactive are the calls of the source. The calls are words filed in the database; no cut-off is given here.

Assays:
Huh-7 = assay: Antiproliferative activity against human Huh-7 cells assessed as inhibition of cell growth inhibition incubated for 48 hrs by CCK-8 assay; type: functional, cell-based; conditions: Huh-7, 48 h
[1] = Cytotoxicity against HUVEC cells assessed as inhibition of cell growth inhibition incubated for 48 hrs by CCK-8 assay; type: toxicity, cell-based; conditions: human
U-87 MG [2] = assay: Induction of cell cycle arrest in human U87 cells assessed as accumulation of cells at G1 phase at 0.5 uM measured after 48 hrs by PI staining based flow cytometry analysis (reference value: 72.6%); type: functional, U-87MG ATCC
U-87 MG [3] = assay: Induction of cell cycle arrest in human U87 cells assessed as accumulation of cells at […] at 0.5 uM measured after 48 hrs by PI staining based flow cytometry analysis (reference value: 8.55%); type: functional, U-87MG ATCC
U-87 MG [4] = assay: Induction of cell cycle arrest in human U87 cells assessed as accumulation of cells at G1 phase at 1 uM measured after 48 hrs by PI staining based flow cytometry analysis (reference value: 72.6%); type: functional, U-87MG ATCC
U-87 MG [5] = assay: Induction of cell cycle arrest in human U87 cells assessed as accumulation of cells at G1 phase at 2 uM measured after 48 hrs by PI staining based flow cytometry analysis (reference value: 72.6%); type: functional, U-87MG ATCC
U-87 MG [6] = assay: Induction of cell cycle arrest in human U87 cells assessed as accumulation of cells at G1 phase at 4 uM measured after 48 hrs by PI staining based flow cytometry analysis (reference value: 72.6%); type: functional, U-87MG ATCC
U-87 MG [7] = assay: Induction of cell cycle arrest in human U87 cells assessed as accumulation of cells at […] at 4 uM measured after 48 hrs by PI staining based flow cytometry analysis (reference value: 8.55%); type: functional, U-87MG ATCC
U-87 MG [8] = assay: Induction of apoptosis in human U87 cells assessed as live cells at 0.3125 uM incubated for 48 hrs by Annexin V-FITC/PI staining based flow cytometry analysis (reference value: 91.7%); type: functional, U-87MG ATCC
U-87 MG [9] = assay: Induction of apoptosis in human U87 cells assessed as early apoptotic cells at 0.3125 uM incubated for 48 hrs by Annexin V-FITC/PI staining based flow cytometry analysis (reference value: 6.25%); type: functional, U-87MG ATCC
U-87 MG [10] = assay: Induction of apoptosis in human U87 cells assessed as late apoptotic cells at 0.3125 uM incubated for 48 hrs by Annexin V-FITC/PI staining based flow cytometry analysis (reference value: 2.08%); type: functional, U-87MG ATCC
U-87 MG [11] = assay: Induction of apoptosis in human U87 cells assessed as dead cells at 0.3125 uM incubated for 48 hrs by Annexin V-FITC/PI staining based flow cytometry analysis (reference value: 0.013%); type: functional, U-87MG ATCC
U-87 MG [12] = assay: Induction of apoptosis in human U87 cells assessed as live cells at 0.625 uM incubated for 48 hrs by Annexin V-FITC/PI staining based flow cytometry analysis (reference value: 91.7%); type: functional, U-87MG ATCC
U-87 MG [13] = assay: Induction of apoptosis in human U87 cells assessed as late apoptotic cells at 0.625 uM incubated for 48 hrs by Annexin V-FITC/PI staining based flow cytometry analysis (reference value: 2.08%); type: functional, U-87MG ATCC
U-87 MG [14] = assay: Induction of apoptosis in human U87 cells assessed as dead cells at 0.625 uM incubated for 48 hrs by Annexin V-FITC/PI staining based flow cytometry analysis (reference value: 0.013%); type: functional, U-87MG ATCC
U-87 MG [15] = assay: Induction of apoptosis in human U87 cells assessed as early apoptotic cells at 1.25 uM incubated for 48 hrs by Annexin V-FITC/PI staining based flow cytometry analysis (reference value: 6.25%); type: functional, U-87MG ATCC
U-87 MG [16] = assay: Induction of apoptosis in human U87 cells assessed as early apoptotic cells at 2.5 uM incubated for 48 hrs by Annexin V-FITC/PI staining based flow cytometry analysis (reference value: 6.25%); type: functional, U-87MG ATCC
U-87 MG [17] = assay: Induction of apoptosis in human U87 cells assessed as dead cells at 2.5 uM incubated for 48 hrs by Annexin V-FITC/PI staining based flow cytometry analysis (reference value: 0.013%); type: functional, U-87MG ATCC
GL261-Luc [18] = assay: Antitumor activity against mouse GL261-Luc cells implanted in iv dosed C57BL/6 mouse assessed as inhibition of tumor growth administered every other day on day 0,2,4,6,8,10 and measured on day 12 by bioluminescence imaging analysis; type: functional, organism-based; conditions: dose 5-10 mg/kg, time 12.0 day
GL261-Luc [19] = assay: Antitumor activity against mouse GL261-Luc cells implanted in C57BL/6 mouse assessed as prolongation of animal survival time at 5 to 10 mg/kg, iv administered every other day on day 0,2,4,6,8,10 and measured after 12 days; type: functional, organism-based; conditions: dose 5-10 mg/kg, time 12.0 day
[20] = Toxicity in C57BL/6 mouse implanted with mouse GL261-Luc cells assessed as histopathological changes in spleen at 5 to 10 mg/kg, iv administered every other day on day 0,2,4,6,8,10 and measured after 12 days by H and E staining based analysis; type: organism-based; conditions: in vivo, 288 h, dose 5-10 mg/kg, time 12 day
[21] = Toxicity in C57BL/6 mouse implanted with mouse GL261-Luc cells assessed as histopathological changes in kidney at 5 to 10 mg/kg, iv administered every other day on day 0,2,4,6,8,10 and measured after 12 days by H and E staining based analysis; type: organism-based; conditions: in vivo, 288 h, dose 5-10 mg/kg, time 12 day
[22] = Apparent permeability across basolateral to apical side in MDCK-MDR1 cells at 10 uM incubated for 90 mins by LC-MS/MS analysis; type: ADME, cell-based, Canis lupus familiaris; conditions: dog
P-gp = assay: Substrate activity at P-gp in MDCK-MDR1 cells assessed as efflux ratio of apparent permeability across basolateral to apical side over apical to basolateral side at 10 uM incubated for 90 mins by LC-MS/MS analysis; type: ADME, cell-based, Canis lupus familiaris; conditions: dog
U-87MG ATCC [23] = assay: Downregulation of TUBA1A gene expression in human U87 cells by transcriptome analysis; type: functional, cell-based
U-87MG ATCC [24] = assay: Downregulation of TUBA1B gene expression in human U87 cells by transcriptome analysis; type: functional, cell-based
U-87MG ATCC [25] = assay: Downregulation of TUBB gene expression in human U87 cells by transcriptome analysis; type: functional, cell-based
U-87MG ATCC [26] = assay: Downregulation of TUBB4B gene expression in human U87 cells by transcriptome analysis; type: functional, cell-based
U-87MG ATCC [27] = assay: Upregulation of CGNL1 gene expression in human U87 cells by transcriptome analysis; type: functional, cell-based
U-87MG ATCC [28] = assay: Upregulation of CORO1A gene expression in human U87 cells by transcriptome analysis; type: functional, cell-based
Tubulin (Homo sapiens) [29] = molecular target: T1, Tubulin (Homo sapiens) (UniProt P68371+Q9H4B7+P0DPH7+P68366+Q13509+Q71U36+P04350+Q3ZCM7+P07437+P68363+Q9BQE3+Q6PEY2+Q13885+Q9BVA1+Q9BUF5); assay: Induction of microtubule depolymerization in human U87 cells assessed as degradation of intracellular tubulin skeleton by measuring reduction in fluorescence intensity at 0.5 to 1 uM incubated for 48 hrs by Alexa Flour 555/DAPI staining based confocal microscopic analysis; type: cell-based; conditions: dose 0.5-1 µM
Tubulin (Homo sapiens) [30] = molecular target: T1, Tubulin (Homo sapiens); assay: Inhibition of tubulin (unknown origin) polymerization assessed as reduction in polymerization rate by fluorescence based analysis; type: protein-complex assay; conditions: dose 6-12 µM
Tubulin (Homo sapiens) [31] = molecular target: T1, Tubulin (Homo sapiens); assay: Inhibition of tubulin (unknown origin) polymerization assessed as reduction in steady state content of tubulins at 6 to 12 uM by fluorescence based analysis; type: protein-complex assay; conditions: dose 6-12 µM

Question: With `Cc1ccc2ccc3c(c2n1)OC(N)=C(C#N)C3c1ccccc1` (stereo not drawn) as the compound, how does the pIC50 (Huh-7) read?
Answer: 5.92

Question: And the IC50 at 48 h [1]?
Answer: > 10000 nM

Question: And the Activity (U-87 MG [2])?
Answer: 72%

Question: What about the Activity (U-87 MG [3]) of the same compound?
Answer: 10.6%

Question: And the Activity (U-87 MG [4])?
Answer: 33%

Question: And the Activity (U-87 MG [5])?
Answer: 14.4%

Question: What about the Activity (U-87 MG [6]) of the same compound?
Answer: 13%

Question: And the Activity (U-87 MG [7])?
Answer: 59.3%

Question: And the Activity (U-87 MG [8])?
Answer: 88.1%

Question: What about the Activity (U-87 MG [9]) of the same compound?
Answer: 7.01%

Question: And the Activity (U-87 MG [10])?
Answer: 4.87%

Question: What about the Activity (U-87 MG [11]) of the same compound?
Answer: 0.019%

Question: What about the Activity (U-87 MG [12]) of the same compound?
Answer: 75.9%

Question: What about the Activity (U-87 MG [13]) of the same compound?
Answer: 7.88%

Question: What about the Activity (U-87 MG [14]) of the same compound?
Answer: 0.1%

Question: What about the Activity (U-87 MG [15]) of the same compound?
Answer: 21.2%

Question: And the Activity (U-87 MG [16])?
Answer: 20.6%

Question: What about the Activity (U-87 MG [17]) of the same compound?
Answer: 0.1%

Question: And the Activity (GL261-Luc [18])?
Answer: Dose-Dependent Effect

Question: What about the Activity (GL261-Luc [19]) of the same compound?
Answer: Active

Question: And the Activity [20]?
Answer: Non-Toxic

Question: And the Activity [21]?
Answer: Non-Toxic

Question: What about the Papp B→A at 1.5 h, 10 µM [22] of the same compound?
Answer: 25.8 ×10⁻⁶ cm/s

Question: And the efflux ratio at 1.5 h, 10 µM (P-gp)?
Answer: 0.76

Question: What about the Activity (U-87MG ATCC [23]) of the same compound?
Answer: Active

Question: And the Activity (U-87MG ATCC [24])?
Answer: Active

Question: What about the Activity (U-87MG ATCC [25]) of the same compound?
Answer: Active

Question: And the Activity (U-87MG ATCC [26])?
Answer: Active

Question: And the Activity (U-87MG ATCC [27])?
Answer: Active

Question: And the Activity (U-87MG ATCC [28])?
Answer: Active

Question: And the Activity (Tubulin (Homo sapiens) [29])?
Answer: Active

Question: And the inhibition (Tubulin (Homo sapiens) [30])?
Answer: Dose-Dependent Effect

Question: And the inhibition (Tubulin (Homo sapiens) [31])?
Answer: Active
